Active and inactive are the calls of the source. The rule behind the calls is not given here. Residues, ends and D or L forms follow the SMILES beside them. *: point of attachment. Cbz = O=C(OCc1ccccc1)*; CH2F = FC*
Legend:
Caspase-1 (Homo sapiens) [1] = target: T1, Caspase-1 (Homo sapiens) (UniProt P29466); assay: Inhibition of recombinant human caspase-1 expressed in Escherichia coli BL21 cells assessed as remaining activity at 10 uM using […] as substrate incubated for 30 mins relative to control
T1 sequence (whole entry): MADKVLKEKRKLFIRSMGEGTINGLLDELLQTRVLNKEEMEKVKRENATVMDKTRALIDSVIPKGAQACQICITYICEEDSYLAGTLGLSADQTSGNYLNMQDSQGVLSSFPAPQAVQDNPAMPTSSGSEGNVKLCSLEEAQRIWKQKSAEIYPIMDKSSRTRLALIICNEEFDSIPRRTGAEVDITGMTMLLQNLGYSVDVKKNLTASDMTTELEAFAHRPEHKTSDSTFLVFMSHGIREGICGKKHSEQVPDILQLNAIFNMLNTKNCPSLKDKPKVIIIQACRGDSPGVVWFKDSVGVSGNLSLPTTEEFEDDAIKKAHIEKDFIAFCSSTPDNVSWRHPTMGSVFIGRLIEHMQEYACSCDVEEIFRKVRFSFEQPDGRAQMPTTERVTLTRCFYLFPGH

Caspase-1 (Homo sapiens) [2] = target: T1, Caspase-1 (Homo sapiens); assay: Inhibition of recombinant human caspase-1 expressed in Escherichia coli BL21 cells assessed as remaining activity at 100 uM using […] as substrate incubated for 30 mins relative to control
Caspase-1 = target: T2, Caspase-1 (Homo sapiens, UniProt P29466); assay: Inhibition of recombinant human caspase-1 expressed in Escherichia coli BL21 cells using […] as substrate incubated for 30 mins
T2 sequence (P29466 whole entry): T1 sequence (whole entry)

Caspase-3 (Mus musculus) = target: T3, Caspase-3 (Mus musculus) (UniProt P70677); assay: Inhibition of cisplatin induced caspase-3 activation in mouse J774.A1 cells at 1 uM preincubated for 30 mins followed by cisplatin addition and incubated overnight; assay type: cell-based
T3 sequence (whole entry): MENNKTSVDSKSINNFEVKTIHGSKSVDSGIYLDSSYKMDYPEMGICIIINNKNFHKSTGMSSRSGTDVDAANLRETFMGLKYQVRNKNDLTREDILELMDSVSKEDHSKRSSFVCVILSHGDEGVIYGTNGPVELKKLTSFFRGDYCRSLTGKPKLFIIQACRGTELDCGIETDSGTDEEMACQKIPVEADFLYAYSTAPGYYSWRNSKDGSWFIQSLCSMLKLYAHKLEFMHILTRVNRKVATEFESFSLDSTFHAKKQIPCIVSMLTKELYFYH

Caspase-7 (Mus musculus) = target: T4, Caspase-7 (Mus musculus) (UniProt P97864); assay: Inhibition of cisplatin induced caspase-7 activation in mouse J774.A1 cells at 1 uM preincubated for 30 mins followed by cisplatin addition and incubated overnight; assay type: cell-based
T4 sequence (whole entry): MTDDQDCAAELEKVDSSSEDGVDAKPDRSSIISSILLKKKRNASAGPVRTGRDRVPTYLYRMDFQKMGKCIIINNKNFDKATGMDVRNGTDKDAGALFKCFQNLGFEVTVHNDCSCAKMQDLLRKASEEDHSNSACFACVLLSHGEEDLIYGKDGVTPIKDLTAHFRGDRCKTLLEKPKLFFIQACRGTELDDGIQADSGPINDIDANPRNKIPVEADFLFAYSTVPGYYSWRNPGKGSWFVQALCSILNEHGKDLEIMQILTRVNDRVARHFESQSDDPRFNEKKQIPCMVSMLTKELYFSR

Caspase-1 (Homo sapiens) [3] = target: T1, Caspase-1 (Homo sapiens); assay: Inhibition of recombinant human caspase-1 expressed in Escherichia coli BL21 cells at 5 to 50 uM using […] as substrate incubated for 30 mins; details: dose 5-50 µM
[4] = target: NACHT, LRR and PYD domains-containing protein 3 (Mus musculus) (UniProt Q8R4B8); assay: Inhibition of NLRP3 inflammasome activation activation in LPS/nigericin stimulated mouse J774.A1 cells assessed as reduction in IL-1beta production pretreated with LPS for 3 hrs prior to compound addition for 30 mins followed by nigericin addition and measured after 45 mins by ELISA; assay type: cell-based; details: dose 0.001-2000 nM, time 75.0 min
Caspase-1 (Homo sapiens) [5] = target: T1, Caspase-1 (Homo sapiens); assay: Inhibition of caspase-1 activity (unknown origin); details: dose 50-300 µM
J774.A1 [6] = assay: Binding affinity to pro-caspase 1 in mouse J774.A1 cells at 50 uM pretreated with LPS for 3 hrs and nigericin stimulation for 45 mins followed by compound addition by pull-down assay; assay type: cell-based
[7] = target: NFU1 iron-sulfur cluster scaffold homolog, mitochondrial (Mus musculus) (UniProt Q9QZ23); assay: Binding affinity to Nfu1 in mouse J774.A1 cells lysate by mass-spectrophotometric assay; assay type: subcellular
J774.A1 [8] = assay: Binding affinity to pro-caspase 1 in mouse J774.A1 cell lysates at 1 to 2 uM incubated for 2 hrs in presence of 1'-benzyl 6-(tert-butyl) (1R,4R,6R)-4-isothiocyanato-5'-methoxy-2'-oxospiro[cyclohexane-1,3'-indolin]-2-ene-1',6-dicarboxylate by pull-down assay; assay type: subcellular; details: dose 1-2 µM
J774.A1 [9] = assay: Binding affinity to pro-caspase 1 in mouse J774.A1 cells by Western blotting analysis; assay type: cell-based
[10] = target: Thioredoxin (Mus musculus) (UniProt P10639); assay: Binding affinity to Txn in mouse J774.A1 cells lysate by mass-spectrophotometric assay; assay type: subcellular
J774.A1 [11] = assay: Binding affinity to pro-caspase 1 in mouse J774.A1 cell lysates at 1 to 2 uM incubated for 2 hrs by pull-down assay; assay type: subcellular; details: dose 1-2 µM
J774.A1 [12] = assay: Inhibition of IL-1beta release in mouse J774.A1 cells at 20 uM pretreated with LPS for 3 hrs followed by compound addition for 30 mins and nigericin stimulation for 45 mins; assay type: functional, cell-based; details: time 75.0 min

Chain of NACHT, LRR and PYD domains-containing protein 3 (Mus musculus) (Q8R4B8 whole entry, the tested form may be a part): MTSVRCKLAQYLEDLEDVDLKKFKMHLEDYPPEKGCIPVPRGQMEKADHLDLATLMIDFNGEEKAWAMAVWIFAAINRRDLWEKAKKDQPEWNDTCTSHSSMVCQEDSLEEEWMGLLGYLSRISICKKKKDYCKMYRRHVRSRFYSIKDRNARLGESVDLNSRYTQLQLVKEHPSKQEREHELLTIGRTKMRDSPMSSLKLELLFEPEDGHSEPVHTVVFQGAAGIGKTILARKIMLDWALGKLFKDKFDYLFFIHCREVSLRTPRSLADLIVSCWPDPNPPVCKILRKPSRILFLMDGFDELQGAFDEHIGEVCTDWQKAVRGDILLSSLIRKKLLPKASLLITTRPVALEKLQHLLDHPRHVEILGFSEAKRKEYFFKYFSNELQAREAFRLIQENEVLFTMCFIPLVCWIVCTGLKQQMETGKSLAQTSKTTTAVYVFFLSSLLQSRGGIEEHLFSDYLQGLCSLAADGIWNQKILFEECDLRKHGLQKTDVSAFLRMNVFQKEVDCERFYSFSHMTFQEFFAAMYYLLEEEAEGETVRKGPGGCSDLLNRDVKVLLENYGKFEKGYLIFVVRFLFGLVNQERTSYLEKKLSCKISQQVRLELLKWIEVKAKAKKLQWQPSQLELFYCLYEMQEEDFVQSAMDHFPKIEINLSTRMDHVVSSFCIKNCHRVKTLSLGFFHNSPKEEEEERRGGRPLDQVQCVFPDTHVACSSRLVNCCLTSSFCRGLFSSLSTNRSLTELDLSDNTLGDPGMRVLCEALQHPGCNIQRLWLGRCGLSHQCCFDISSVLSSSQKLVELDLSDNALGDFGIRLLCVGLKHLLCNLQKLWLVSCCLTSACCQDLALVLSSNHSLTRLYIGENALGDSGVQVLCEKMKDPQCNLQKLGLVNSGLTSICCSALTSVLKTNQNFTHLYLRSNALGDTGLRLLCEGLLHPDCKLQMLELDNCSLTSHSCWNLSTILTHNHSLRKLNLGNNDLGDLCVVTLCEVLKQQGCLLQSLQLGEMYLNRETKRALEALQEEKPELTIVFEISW
Chain of Thioredoxin (Mus musculus) (P10639 whole entry): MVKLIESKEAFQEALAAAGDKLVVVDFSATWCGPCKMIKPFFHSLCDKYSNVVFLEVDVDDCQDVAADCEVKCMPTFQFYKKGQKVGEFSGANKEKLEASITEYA
Chain of NFU1 iron-sulfur cluster scaffold homolog, mitochondrial (Mus musculus) (Q9QZ23 whole entry): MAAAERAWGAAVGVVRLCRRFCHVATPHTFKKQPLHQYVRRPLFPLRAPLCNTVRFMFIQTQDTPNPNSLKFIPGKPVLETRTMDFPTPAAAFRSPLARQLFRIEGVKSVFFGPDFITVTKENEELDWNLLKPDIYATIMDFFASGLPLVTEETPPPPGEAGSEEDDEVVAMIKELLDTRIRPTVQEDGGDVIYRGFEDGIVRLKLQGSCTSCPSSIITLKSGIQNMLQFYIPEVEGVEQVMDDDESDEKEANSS

Structure (SMILES) | Activity (Caspase-1 (Homo sapiens) [1]) | Activity (Caspase-1 (Homo sapiens) [2]) | IC50 (Caspase-1) | also measured
CC1=C[C@@]2(C(=O)N(C(=O)OCc3ccccc3)c3ccccc32)[C@H](C(=O)OC(C)(C)C)C[C@H]1N=C=S | 93% | 84% | > 100 µM | –
CC(C)(C)OC(=O)[C@@H]1C[C@@H](N=C=S)C=C[C@@]12C(=O)N(C(=O)OCc1ccccc1)c1ccc(Br)cc12 | 92% | 31% | 89.8 µM | –
CC(C)(C)OC(=O)[C@@H]1C[C@@H](N=C=S)C=C[C@@]12C(=O)N(C(=O)OCc1ccccc1)c1ccccc12 | 76% | 15% | 37.6 µM | –
COC(=O)C[C@H](NC(=O)[C@H](C)NC(=O)[C@@H](NC(=O)OCc1ccccc1)C(C)C)C(=O)CF (Cbz-Val-Ala-Asp(OMe)-CH2F) | – | – | – | inhibition (Caspase-3 (Mus musculus)): Active; inhibition (Caspase-7 (Mus musculus)): Active
CC(C)(C)OC(=O)[C@@H]1C[C@@H](N=C=S)C=C[C@@]12C(=O)N(C(=O)OCC1c3ccccc3-c3ccccc31)c1ccccc12 | 90% | 24% | 75.7 µM | –
CCC1=C[C@@]2(C(=O)N(C(=O)OCc3ccccc3)c3ccccc32)[C@H](C(=O)OC(C)(C)C)C[C@@]1(CC)N=C=S | 108% | 90% | > 100 µM | –
O=C(c1ccccc1)[C@@H]1C[C@@H](N=C=S)C=C[C@@]12C(=O)N(C(=O)OCc1ccccc1)c1ccccc12 | 56% | 15% | 26.2 µM | –
O=C(Oc1ccccc1)[C@@H]1C[C@@H](N=C=S)C=C[C@@]12C(=O)N(C(=O)OCc1ccccc1)c1ccccc12 | 101% | 56% | > 100 µM | –
S=C=NCc1ccccc1 | – | – | – | inhibition (active/not active) (Caspase-1 (Homo sapiens) [3]): Active; inhibition [4]: Dose-Dependent Effect
COc1ccc2c(c1)[C@]1(C=C[C@H](N=C=S)C[C@H]1C(=O)OC(C)(C)C)C(=O)N2 | 75% | 10% | 40.5 µM | –
CC(C)(C)OC(=O)[C@@H]1C[C@@H](N=C=S)C=C[C@@]12C(=O)Nc1ccc(NC(=O)CCCC[C@@H]3SC[C@@H]4NC(=O)N[C@@H]43)cc12 | – | – | – | inhibition (Caspase-1 (Homo sapiens) [5]): Dose-Dependent Effect; Activity (J774.A1 [6]): Active; Activity [7]: Active; Activity (J774.A1 [8]): inactive; Activity (J774.A1 [9]): Active; Activity [10]: Active; Activity (J774.A1 [11]): Active; inhibition (J774.A1 [12]): Active
C[S+]([O-])CCCCN=C=S (stereo not drawn) | – | – | – | inhibition (active/not active) (Caspase-1 (Homo sapiens) [3]): inactive; inhibition [4]: Dose-Dependent Effect
Cc1ccc2c(c1)[C@]1(C=C[C@H](N=C=S)C[C@H]1C(=O)OC(C)(C)C)C(=O)N2C(=O)OCc1ccccc1 | 68% | 15% | 28.4 µM | –
COc1ccc2c(c1)[C@@]1(C=C[C@@H](N=C=S)C[C@@H]1C(=O)OC(C)(C)C)C(=O)N2C(=O)OCc1ccccc1 | – | – | – | inhibition (active/not active) (Caspase-1 (Homo sapiens) [3]): Active
CC(C)(C)OC(=O)[C@@H]1C[C@@H](N=C=S)C=C[C@@]12C(=O)N(C(=O)OCc1ccccc1)c1cc(F)c(F)cc12 | 73% | 21% | 43.6 µM | –
CC(C)(C)OC(=O)[C@@H]1C[C@@H](N=C=S)C=C[C@@]12C(=O)N(C(=O)OCc1ccccc1)c1cc(Br)ccc12 | 71% | 20% | 15.4 µM | –

— ChEMBL document CHEMBL5584334, “Discovery of a Covalent Inhibitor of Pro-Caspase-1 Zymogen Blocking NLRP3 Inflammasome Activation and Pyroptosis” (J Med Chem, 2024)
